Laboratory results taken from PMC4965013, “Open Source Drug Discovery with the Malaria Box Compound Collection for Neglected Diseases and Beyond” (PLoS Pathogens, 2016).
Read-outs that look alike come from different tables or passages of the source. Values belong to the molecule of their own block, whether it stands above or below them.

Assays:
[1] = tested on: P. falciparum 3D7; assay: [3H]-hypoxanthine growth inhibition, modified HCO3- or O2; format: cell-based; settings: for IC50: Plasmodium falciparum
[2] = tested on: P. falciparum 3D7 trophozoites; assay: Metabolomic fingerprint profiling LC-MS; format: cell-based, Plasmodium falciparum; set-up: UDP-D-glucose / ADP-D-glucose: unit not given here; settings: for Acetyllysine / N-acetyl-L-ornithine / N-carbamoyl-L-aspartate / NADPH / dAMP / dCMP / dTDP / dTMP / dTTP / dihydroorotate / orotate / DLH / DLS/SDL/SID / PD / PEE / PVNF / 3-phosphoglycerate / ADP-D-glucose / ATP / CDP / D-sedoheptulose-1/7-phosphate / FAD / GMP / NAD+ / NADP+ / Octoluse Bisphosphate / Pyroglutamic acid / UDP-D-glucose / UDP-D-glucuronate / UDP-N-acetyl-glucosamine / UDP / UMP / UTP / a-ketoglutarate / citrate/isocitrate / cytidine / dATP / dGMP/AMP / fumarate / glucose-1/6-phosphate / glycerate / guanine / guanosine / hypoxanthine / indole / inosine / nicotinate / ornithine / phosphoenolpyruvate / pyruvate / ribose-phosphate / sarcosine/alanine / sn-glycerol-3-phosphate / succinate/methylmalonic acid / uridine / xanthosine: S2 Table Metabolomics; for Acetyllysine: metabolite Acetyllysine; for N-acetyl-L-ornithine: metabolite N-acetyl-L-ornithine; for N-carbamoyl-L-aspartate: metabolite N-carbamoyl-L-aspartate; for NADPH: metabolite NADPH; for dAMP: metabolite dAMP; for dCMP: metabolite dCMP; for dTDP: metabolite dTDP; for dTMP: metabolite dTMP; for dTTP: metabolite dTTP; for dihydroorotate: metabolite dihydroorotate; for orotate: metabolite orotate; for DLH: peptide DLH; for DLS/SDL/SID: peptide DLS/SDL/SID; for PD: peptide PD; for PEE: peptide PEE; for PVNF: peptide PVNF; for 3-phosphoglycerate: metabolite 3-phosphoglycerate; for ADP-D-glucose: metabolite ADP-D-glucose; for ATP: metabolite ATP; for CDP: metabolite CDP; for CDP / D-sedoheptulose-1/7-phosphate / GMP / Octoluse Bisphosphate / UDP / UMP / UTP / citrate/isocitrate / dGMP/AMP / fumarate / glucose-1/6-phosphate / glycerate / guanine / guanosine / inosine / pyruvate / sarcosine/alanine / succinate/methylmalonic acid / uridine / xanthosine: change in metabolite level after compound treatment; for D-sedoheptulose-1/7-phosphate: metabolite D-sedoheptulose-1/7-phosphate; for FAD: metabolite FAD; for GMP: metabolite GMP; for NAD+: metabolite NAD+; for NADP+: metabolite NADP+; for Octoluse Bisphosphate: metabolite Octoluse Bisphosphate; for Pyroglutamic acid: metabolite Pyroglutamic acid; for UDP-D-glucose: metabolite UDP-D-glucose; for UDP-D-glucuronate: metabolite UDP-D-glucuronate; for UDP-N-acetyl-glucosamine: metabolite UDP-N-acetyl-glucosamine; for UDP: metabolite UDP; for UMP: metabolite UMP; for UTP: metabolite UTP; for a-ketoglutarate: metabolite a-ketoglutarate; for citrate/isocitrate: metabolite citrate/isocitrate; for cytidine: metabolite cytidine; for dATP: metabolite dATP; for dGMP/AMP: metabolite dGMP/AMP; for fumarate: metabolite fumarate; for glucose-1/6-phosphate: metabolite glucose-1/6-phosphate; for glycerate: metabolite glycerate; for guanine: metabolite guanine; for guanosine: metabolite guanosine; for hypoxanthine: metabolite hypoxanthine; for indole: metabolite indole; for inosine: metabolite inosine; for 2_3-Diphosphoglyceric acid / 4-phosphopantothenate / 6-phospho-D-gluconate / FMN / IMP / Pyrophosphate / Sedoheptoluse bisphosphate / cyclic-AMP / glutathione disulfide / lactate / myo-inositol: metabolite level change after treatment; for nicotinate: metabolite nicotinate; for ornithine: metabolite ornithine; for phosphoenolpyruvate: metabolite phosphoenolpyruvate; for pyruvate: metabolite pyruvate; for ribose-phosphate: metabolite ribose-phosphate; for sarcosine/alanine: metabolite sarcosine/alanine; for sn-glycerol-3-phosphate: metabolite sn-glycerol-3-phosphate; for succinate/methylmalonic acid: metabolite succinate/methylmalonic acid; for uridine: metabolite uridine; for xanthosine: metabolite xanthosine
[3] = tested on: P. falciparum; assay: EC50 listed in S2 Table Metabolomics (used to set the concentration tested); format: cell-based; settings: Plasmodium falciparum; EC50 used for Factor_XEC50 in metabolomics; read-out: EC50_nM
[4] = tested on: Naegleria fowleri trophozoites; assay: Naegleria fowleri CellTiter-Glo; format: cell-based; settings: Naegleria fowleri
From the text: Columns CY-CZ: Kyle group (data presented first in this paper). Naegleria fowleri trophozoite growth inhibition. Methods: The CellTiter-Glo (CTG) 2.0 luminescent assay is a quantitative assay that assesses the presence of cellular ATP in lysed cells, displaying an output in Relative Light Units (RLU’s). This was previously standardised, for the growth and development of Naegleria fowleri trophozoites in-vitro to assess drug susceptibility on this parasite. […] These included two drug-like molecules MMV665807 (St. Jude’s Children’s Hospital) and MMV665979 (The Genomics Institute of the Novartis Research Foundation - GNF) and two Probe-like molecules, MMV006203 (GNF) & MMV006172 (GNF; GlaxoSmithKline - GSK). […] However, these Malaria Box compounds were all toxic to zebrafish and mammalian cells.

[5] = tested on: P. falciparum NF54 late-stage gametocytes; settings: ref [61]; cited from earlier work
[6] = biological target: PfPMT (Plasmodium falciparum, UniProt Q8IDQ9); assay: PfPMT gene replacement yeast growth; settings: 100µM
Chain of PfPMT (Q8IDQ9 whole entry): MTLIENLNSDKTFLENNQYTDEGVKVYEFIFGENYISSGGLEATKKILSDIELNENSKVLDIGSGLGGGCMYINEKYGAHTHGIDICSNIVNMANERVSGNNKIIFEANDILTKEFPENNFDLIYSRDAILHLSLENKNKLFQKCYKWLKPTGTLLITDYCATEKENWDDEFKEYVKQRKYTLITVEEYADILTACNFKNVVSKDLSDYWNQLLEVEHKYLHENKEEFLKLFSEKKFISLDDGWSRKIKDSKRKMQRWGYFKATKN

[7] = tested on: P. falciparum Dd2; assay: Malaria Sybr Green I Fluorescence assay Dd2 Horrocks; format: cell-based; settings: Plasmodium falciparum, DD2, 48 h; read-out: P. falciparum Dd2 asexual blood stage EC50 Horrocks
Method: Column S: Horrocks group (data presented first in this paper). Asexual Dd2 inhibition of growth (IC50s): IC50 for the Dd2 clone of Plasmodium falciparum were determined using the Malaria Sybr Green I Fluorescence assay. Drug assays were initiated using a 2% trophozoite stage parasitaemia and 2% hematocrit and fluorescence measured after 48 h as fully described in Hasenkamp et al.[53]. Log dose-response curves were plotted in GraphPad Prism (v5.0). The controls for Dd2 using our 48hr Sybr Green I assay were (rounded to nearest nM): Chloroquine 209nM, Mefloquine 11nM, Quinine 246nM, Dihydroartemisinin 4nM, Artemether 10nM, Atovaquone 3nM.

[8] = tested on: P. falciparum NF54 gametocytes stage IV/V; assay: Gametocyte PrestoBlue resazurin assay Mancama; format: cell-based; settings: reference control
[9] = tested on: P. falciparum NF54Pfs16 gametocytes stage IV-V; settings: ref [62]; read-out: gametocyte late stage (IV-V) luciferase EC50; cited from earlier work
[10] = tested on: P. falciparum NF54 GFP-Pfs16 gametocytes stage I-III; settings: ref [64]; read-out: gametocyte early stage (I-III) GFP-MTR EC50; cited from earlier work
[11] = tested on: P. falciparum NF54 GFP-Pfs16 gametocytes stage IV-V; settings: ref [64]; read-out: gametocyte late stage (IV-V) GFP-MTR EC50; cited from earlier work
[12] = tested on: P. falciparum NF54Pfs16 gametocytes stage I-III; settings: ref [61]; read-out: gametocyte early stage (I-III) luciferase EC50; cited from earlier work

EC50 [3]: 300 nM
SMILES: Cc1cc(NCCN2CCCCC2)c2ccc3ccccc3c2n1 [MMV006203]
fold change (IC50normal/ IC50hypoxia) [1]: 3.7
IC50 ([1]; 3D7, read-out: P. falciparum 3D7 IC50 1% O2, 1% O2 hypoxia): 132 nM
IC50 ([1]; 3D7, read-out: P. falciparum 3D7 IC50 5% O2): 489 nM
Acetyllysine [2]: 0.08786
N-acetyl-L-ornithine [2]: 0.002896
N-carbamoyl-L-aspartate [2]: 0.4112
NADPH [2]: 0.03038
dAMP [2]: 0.7397
dCMP [2]: 0.2991
dTDP [2]: 0.8216
dTMP [2]: 0.8444
dTTP [2]: 0.2113
dihydroorotate [2]: 0.4914
orotate [2]: 0.1057
DLH [2]: -0.3111
DLS/SDL/SID [2]: -0.5497
PD [2]: -0.2642
PEE [2]: -0.1431
PVNF [2]: -0.3001
3-phosphoglycerate [2]: -0.2573
ADP-D-glucose [2]: 0.2156
ATP [2]: -0.6838
CDP [2]: 0.8402
D-sedoheptulose-1/7-phosphate [2]: 0.9147
FAD [2]: 0.06173
GMP [2]: -0.5622
NAD+ [2]: -0.01124
NADP+ [2]: 0.01586
Octoluse Bisphosphate [2]: -0.09172
Pyroglutamic acid [2]: -0.7767
UDP-D-glucose [2]: 0.04255
UDP-D-glucuronate [2]: -0.09689
UDP-N-acetyl-glucosamine [2]: 0.1138
UDP [2]: 0.8936
UMP [2]: -0.4956
UTP [2]: -0.4083
a-ketoglutarate [2]: -0.4253
citrate/isocitrate [2]: -0.3127
cytidine [2]: -0.1848
dATP [2]: -0.6172
dGMP/AMP [2]: 0.6443
fumarate [2]: -0.3628
glucose-1/6-phosphate [2]: 0.2347
glycerate [2]: -0.4315
guanine [2]: 0.07764
guanosine [2]: -0.09005
hypoxanthine [2]: -0.3483
indole [2]: -0.1837
inosine [2]: -0.08456
2_3-Diphosphoglyceric acid [2]: 0.4386
4-phosphopantothenate [2]: 0.2283
6-phospho-D-gluconate [2]: 0.1112
FMN [2]: 0.1526
IMP [2]: 0.332
Pyrophosphate [2]: 0.424
Sedoheptoluse bisphosphate [2]: -0.2408
cyclic-AMP [2]: -0.2974
glutathione disulfide [2]: 0.042
lactate [2]: -0.2642
myo-inositol [2]: -0.268
nicotinate [2]: -0.1416
ornithine [2]: -0.3267
phosphoenolpyruvate [2]: -0.2017
pyruvate [2]: -0.1834
ribose-phosphate [2]: -0.417
sarcosine/alanine [2]: 0.1849
sn-glycerol-3-phosphate [2]: -0.1322
succinate/methylmalonic acid [2]: -0.1409
uridine [2]: -0.04629
xanthosine [2]: -0.705
EC50 [4]: 420 nM

SMILES: CN1CCN(c2ccc(Nc3c4ccccc4nc4ccccc34)cc2)CC1 [MMV006172]
fold change (IC50reduced/IC50normal) [1]: 2.7
IC50 ([1]; 3D7, read-out: P. falciparum 3D7 IC50 HCO3- (2g/L), standard media): 98 nM
IC50 ([1]; 3D7, HCO3- reduced media, read-out: P. falciparum 3D7 IC50 HCO3- reduced): 269 nM
Acetyllysine [2]: 0.6429
N-acetyl-L-ornithine [2]: -0.2511
N-carbamoyl-L-aspartate [2]: 0.8815
NADPH [2]: 2.534
dAMP [2]: 1.267
dCMP [2]: -0.3053
dTDP [2]: 0.7092
dTMP [2]: 0.8691
dTTP [2]: -0.715
dihydroorotate [2]: 1.4632
orotate [2]: 0.5213
DLH [2]: -4.586
DLS/SDL/SID [2]: -3.823
PD [2]: -0.4464
PEE [2]: -0.6694
PVNF [2]: -3.7
3-phosphoglycerate [2]: -0.655
ADP-D-glucose [2]: -0.09693
ATP [2]: -0.7842
CDP [2]: 1.006
D-sedoheptulose-1/7-phosphate [2]: 0.2573
FAD [2]: 0.1782
GMP [2]: -0.3671
NAD+ [2]: 0.5266
NADP+ [2]: -0.7002
Octoluse Bisphosphate [2]: -0.1204
Pyroglutamic acid [2]: -0.2696
UDP-D-glucose [2]: 0.05631
UDP-D-glucuronate [2]: -0.2935
UDP-N-acetyl-glucosamine [2]: 0.1613
UDP [2]: 0.649
UMP [2]: 0.2218
UTP [2]: -0.6427
a-ketoglutarate [2]: -0.4073
citrate/isocitrate [2]: -0.6633
cytidine [2]: 0.3233
dATP [2]: -0.3558
dGMP/AMP [2]: 1.003
fumarate [2]: 0.7684
glucose-1/6-phosphate [2]: 0.09231
glycerate [2]: 0.7592
guanine [2]: 0.5811
guanosine [2]: 0.453
hypoxanthine [2]: -0.3137
indole [2]: -0.03187
inosine [2]: -0.01435
2_3-Diphosphoglyceric acid [2]: -0.3266
4-phosphopantothenate [2]: 0.2237
6-phospho-D-gluconate [2]: -0.02611
FMN [2]: -0.396
IMP [2]: 0.3236
Pyrophosphate [2]: -0.313
Sedoheptoluse bisphosphate [2]: 0.4531
cyclic-AMP [2]: -0.3476
glutathione disulfide [2]: -0.09654
lactate [2]: -0.002939
myo-inositol [2]: 0.6827
nicotinate [2]: -0.01109
ornithine [2]: 0.1416
phosphoenolpyruvate [2]: -0.5207
pyruvate [2]: -0.2034
ribose-phosphate [2]: -0.6476
sarcosine/alanine [2]: -0.2856
sn-glycerol-3-phosphate [2]: -0.6027
succinate/methylmalonic acid [2]: -0.3004
uridine [2]: -0.07558
xanthosine [2]: -1.8392
IC50 [5]: < 350 nM
EC50 [3]: 142 nM
EC50 [4]: 450 nM
candidate inhibitors of PfPMT activity (yeast functional assay) [6]: candidate inhibitors of PfPMT activity

EC50 [7]: 4 nM
SMILES: C[C@H]1[C@@H](O)O[C@@H]2O[C@@]3(C)CC[C@H]4[C@H](C)CC[C@@H]1[C@@]24OO3 [Dihydroartemisinin, reference compound]
DHA inhibition of stage IV/V gametocytes [8]: 84%

SMILES: CN(C)c1ccc2nc3ccc(=[N+](C)C)cc-3sc2c1 [methylene blue, reference compound]
EC50 [9]: 38 nM
EC50 [10]: 280 nM
EC50 [11]: 287 nM
EC50 [12]: 30 nM

SMILES: CCN(CC)CCn1c(=N)n(CC(O)c2ccc(Cl)c(Cl)c2)c2ccccc21 (stereo not drawn) [MMV000248]
IC50 [5]: < 350 nM
